{
  "source": "patent US9682930B2",
  "about": "“Rheumatoid arthritis treatment” (Avexxin AS, priority 2011, dated 2017)",
  "key": {"[1]": {"test_system": "ESE-1 mRNA expression in SW982 cells", "test": "TNF-induced ESE-1 mRNA expression in postconfluent SW982 cells", "assay_type": "cell-based", "details": "2 hours preincubation, 6 hours 10 ng/ml TNF", "experimental": "The cells were starved in 0% FCS-DMEM overnight before experimental treatment consisting of 2 hours preincubation of inhibitors followed by 6 hours stimulation with 10 ng/ml TNF\nAs a control, the NF-kB inhibitor BAY-7082 is included."}, "[2]": {"test_system": "PGE2 production in SW982 cells", "test": "TNF induced PGE2 production in SW982 cells (EIA/ELISA)", "assay_type": "cell-based", "details": "for Fold change 1 (PGE2) / Fold change 2 (PGE2) / Mean fold change (PGE2): relative to Ctrl", "experimental": "PGE2 production was monitored by ELISA. Those cells receiving treatment underwent reincubation (prior to stimulation) with either Compound 1 (AVX001) or Compound 2 (AVX002) for 2 hours.\nFIGS. 3A and 3B show the determination of IC50 values for Compound 1 and Compound 2 inhibition of TNF induced PGE2 production in SW982 cells. […] corresponds to the PGE2 level induced with TNFα in combination with ethanol after incubation for 24 hours.\n(§1) The Cell Culture SW982 model cell line at a confluent or spheroid state (Wada Y, 2005) was used since gene expression and generation of proinflammatory cytokines resemble RA-derived synovial fibroblast-like cells.\n(§2) For stimulation experiments 0.5 mL of a cell suspension (5-7×10^5 cells/mL) were seeded inside the inner wells of 48-well plates. The outer wells were filled with 0.5 mL PBS. For nearly confluent populations, cells were incubated for one day (37° C., 5% CO2). In order to yield post-confluent cells, plates were left in the incubator for 3 days. After this incubation time, 300 μL of the supernatant was removed and replaced by 50 μL of stimulation medium.\n(§3) Inhibition was performed in a similar manner as the stimulation. After seeding, incubation and replacement of the medium by 200 μL 0.5% FBS in DMEM, 50 μL of the particular inhibitor solution was added (Table 1). After 2 hours at 37° C., 50 μL of the supernatant was removed and replaced by the three stimulants described above.\nSamples and controls were slowly thawed and diluted (between 1:1 and 1:2500) in the standard diluent. The maximal dilution was 1:10 for one step. That is why several intermediate dilutions were prepared. In the beginning all values were determined from duplicates. After having minimized technical errors, samples were only analyzed as individuals. All further steps, except for some minor corrections, were performed according to the manufacturer's recommendations as can be found in the manual of the EIA kit. In order to optimize the results, the incubation time of the alkaline phosphatase substrate was prolonged by 15 minutes. During the incubation, the plates were kept in the dark. An example of the arrangements of the samples and controls is illustrated in the appendix. The read-out was carried out with a Multiscan plate reader (Ascent Labsystems) at wavelengths of 414 and 595 nm after 10 seconds shaking at 120 rpm. The corresponding software to obtain the data was the Ascent software for Multiscan, Version 2.4.1.\nSW982 cells were stimulated with TNF for various lengths ranging from 12-48 hours."}, "[3]": {"test_system": "arachidonic acid (AA) release in SW982 cells", "test": "TNF-induced arachidonic acid (AA) release in SW982 cells", "assay_type": "cell-based", "experimental": "as §1, §2, §3\nWe evaluted inhibition in SW982 cells by analyzing arachidonic acid (AA) release in response to TNF with or without inhibitor pre-treatment. […] The inhibitory effect of Compound 2 was compared to that of ATK and SB203580 (FIG. 1b)."}, "[4]": {"test_system": "IL-8 expression in SW982 cells", "test": "Quantitative RT-PCR of IL-8 expression in TNF stimulated SW982 cells", "assay_type": "cell-based", "details": "TNF 24 hrs", "experimental": "(§4) The expression of COX2, MMP and IL-8, both known to be central in inflammation and/or joint destruction was evaluated by quantiative RT-PCR. SW 982 cells were seeded at a density of 0.1×10^6 cells/well in a 6-well format and then serum-starved after reaching 2-days post confluency. Cells were preincubated with or without inhibitors for 2 hrs prior to treatment in absence or presence of TNF for 24 hrs. The fold-difference in expression of target inflammatory genes relative to an endogenous control (GAPDH) was determined using ΔΔCt method (ΔΔCt=Cttarget−CtGAPDHt)treated−(Cttarget−CtGAPDH)untreated. Mean±SD of 3 separate experiments."}, "[5]": {"test_system": "COX2 expression in SW982 cells", "test": "Quantitative RT-PCR of COX2 expression in TNF stimulated SW982 cells", "assay_type": "cell-based", "details": "TNF 24 hrs", "experimental": "as §4"}, "[6]": {"test_system": "MMP3 expression in SW982 cells", "test": "Quantitative RT-PCR of MMP expression in TNF stimulated SW982 cells", "assay_type": "cell-based", "details": "2 hrs preincubation, TNF 24 hrs", "experimental": "as §4"}, "[7]": {"test_system": "collagen-induced arthritis", "test": "Mouse model of collagen-induced arthritis (CIA), arthritis index", "assay_type": "in vivo, male DBA/1 mice", "details": "CIA mice, treatment from Day 28 for 14 days, FIG. 7", "experimental": "CIA was induced in male DBA/1 mice (except naive group) by immunization with 0.1 mL emulsion containing an equal volume of bovine collagen solution (2 mg/mL) and Freund's Complete Adjuvant antigen solution at the tail base. The first injection was given on Day 0 and the second injection as booster was given on Day 21. Treatment was started on Day 28 and continued for 14 days."}, "[8]": {"details": "SW982 cells, 2 hrs preincubation, n = 3"}, "[9]": {"details": "relative to GAPDH, ΔΔCt, n = 3, mean +/- SD"}},
  "note": "Entries after “also recorded” stand apart in the source; their conditions may differ.",
  "data": [
    {"smiles": "COc1ccc2c(c1)c(CC(=O)O)c(C)n2C(=O)c1ccc(Cl)cc1", "note": "[indomethasin, reference compound]", "values": [
      {"measurement": "Regulation of TNF-induced ESE-1 expression", "setting": "[1]", "result": "poorer regulation of TNF induced ESE-1 expression than the control"}
    ]},
    {"smiles": "C[S+]([O-])c1ccc(-c2nc(-c3ccncc3)c(-c3ccc(F)cc3)[nH]2)cc1", "note": "(centres unmarked) [SB203580, reference compound]", "values": [
      {"measurement": "Mean PGE2", "setting": "[2]; 10 uM inhibitor + TNF", "result": 25.6},
      {"measurement": "Fold change 1 (PGE2)", "setting": "[2]; 10 uM inhibitor + TNF", "result": 0.18},
      {"measurement": "Fold change 2 (PGE2)", "setting": "[2]; 10 uM inhibitor + TNF", "result": 0.09},
      {"measurement": "Mean fold change (PGE2)", "setting": "[2]; 10 uM inhibitor + TNF", "result": 0.14},
      {"measurement": "inhibition at 10 µM", "setting": "[2]; Homo sapiens, SW982, 10 uM inhibitor + TNF", "result": 111, "unit": "%"},
      {"measurement": "Effect on PGE2 production in response to TNF stimulation", "setting": "[2]; SW982 cells", "result": "depleted PGE2 levels to below basal release"}
    ]},
    {"smiles": "CC/C=C\\C/C=C\\C/C=C\\C/C=C\\C/C=C\\CCSCC(=O)C(F)(F)F", "note": "[Compound 2]", "values": [
      {"measurement": "IC50", "setting": "[3]; TNF 10 ng/ml, inhibitor pre-treatment, read-out: IC50 for reduction of TNF-induced release of AA", "result": "~1000", "unit": "nM"},
      {"measurement": "Effect on AA release", "setting": "[3]; TNF-induced", "result": "normalizes AA-release to basal level"},
      {"measurement": "% Inhibition (PGE2)", "setting": "[2]; 5 uM inhibitor + TNF", "result": 107.3, "unit": "%"},
      {"measurement": "Mean PGE2", "setting": "[2]; 5 uM inhibitor + TNF", "result": 87.5},
      {"measurement": "Fold change 1 (PGE2)", "setting": "[2]; 5 uM inhibitor + TNF", "result": 0.64},
      {"measurement": "Fold change 2 (PGE2)", "setting": "[2]; 5 uM inhibitor + TNF", "result": 0.30},
      {"measurement": "Mean fold change (PGE2)", "setting": "[2]; 5 uM inhibitor + TNF", "result": 0.47},
      {"measurement": "% Inhibition (PGE2)", "setting": "[2]; 10 uM inhibitor + TNF", "result": 103.7, "unit": "%"},
      {"measurement": "Mean PGE2", "setting": "[2]; 10 uM inhibitor + TNF", "result": 147.5},
      {"measurement": "Fold change 1 (PGE2)", "setting": "[2]; 10 uM inhibitor + TNF", "result": 1.34},
      {"measurement": "Fold change 2 (PGE2)", "setting": "[2]; 10 uM inhibitor + TNF", "result": 0.38},
      {"measurement": "Mean fold change (PGE2)", "setting": "[2]; 10 uM inhibitor + TNF", "result": 0.86},
      {"measurement": "Effect on PGE2 production in response to TNF stimulation", "setting": "[2]; SW982 cells", "result": "reduced PGE2 production to basal levels"},
      {"measurement": "IC50", "setting": "[2]; SW982 cells, FIG. 3, read-out: IC50 for inhibition of TNF induced PGE2 production", "result": "~430", "unit": "nM"},
      {"measurement": "Regulation of TNF-induced ESE-1 expression", "setting": "[1]", "result": "in a dose dependent manner; also recorded: similar, if not better, regulation of ESE-1 expression than the known NF-kB inhibitor BAY-7082"},
      {"measurement": "% Inhibition of induction of IL-8 message", "setting": "[4]; [8]", "result": 53.49, "unit": "%"},
      {"measurement": "Average fold induction of IL-8 transcript, Compound 2/TNF", "setting": "[4]; [9]", "result": "39.21 +/− 10.76"},
      {"measurement": "% Inhibition of induction of COX2 message", "setting": "[5]; [8]", "result": 42.22, "unit": "%"},
      {"measurement": "Average fold induction of COX2 transcript, Compound 2/TNF", "setting": "[5]; [9]", "result": "5.40 +/− 4.32"},
      {"measurement": "% Inhibition of induction of MMP3 message", "setting": "[6]", "result": "~58", "unit": "%"},
      {"measurement": "Reduction of arthritis index (AI)", "setting": "[7]", "result": "More Effective than ENBREL® (Etanercept) in Reducing an Arthritis Index"}
    ]},
    {"smiles": "CCCCC/C=C\\C/C=C\\C/C=C\\C/C=C\\CCCC(=O)C(F)(F)F", "note": "[ATK, reference compound]", "values": [
      {"measurement": "Effect on PGE2 production in response to TNF stimulation", "setting": "[2]; SW982 cells", "result": "reduced PGE2 production to basal levels"}
    ]}
  ]
}
